Assay results as given in patent publication US8703784B2, “Substituted pyrazolo[1,5-a]pyrido[3.2-e]pyrimidin-6-one inhibitors of mammalian target of rapamycin” (Merck Sharp & Dohme Corp., priority 2010, dated 2014).
pIC50: −log10 of the molar value.

molecular target: mTOR enzyme (Homo sapiens, UniProt P42345); test: mTOR Kinase Assay; format: biochemical; conditions: 5 μM ATP, 0.1 μM GSTS6K substrate
Description: The mTOR assay buffer contains 10 mM hepes (pH 7.4), 50 mM NaCl, 100 μg/ml BSA, 50 mM B-glycerophosphate, 10 mM MnCl2 and 0.5 mM DTT. 20 ng of mTOR enzyme is preincubated with the compound for 10 minutes. 5 μM ATP and 0.1 μM GSTS6K is added. The reaction is incubated for one hour at 30° C. Anti phospho p70S6K (about 1.7 ng/well) and anti GSTXL665 (1:1 Ratio with the substrate GSTS6K) are added after incubating. The plates are read at least 2 hours after adding the anti phospho p70S6K and the anti GSTXL665.
Dose-response curves were plotted from inhibition data generated, each in duplicate, from 8 point serial dilutions of inhibitory compounds. Concentration of compound was plotted against % kinase activity, calculated by CPM of treated samples divided by CPM of untreated samples. To generate IC50 values, the dose-response curves were then fitted to a standard sigmoidal curve and IC50 values were derived by nonlinear regression analysis.

Row | pIC50 | Compound
1 | > 8.00 | C[C@@H](O)C(=O)N1CCC(c2nc3c(-c4ccc(-c5ccccc5)nc4)cnn3c3c2C(=O)CCN3)CC1 [Example 17]
2 | > 8.00 | CC(CO)(CO)C(=O)N1CCC(c2nc3c(-c4ccc(-c5ccccc5)nc4)cnn3c3c2C(=O)CCN3)CC1 [Example 18]
3 | 7.00 to 8.00 | O=C1CCNc2c1c(N1CCOCC1)nc1c(-c3cnc4ccccc4c3)cnn21 [Example 19, 5-morpholino-3-(quinolin-3-yl)-8,9-dihydropyrazolo[1,5-a]pyrido[3,2-e]pyrimidin-6(7H)-one]
4 | 7.00 to 8.00 | C[C@@H]1CN(c2nc3c(-c4ccc(-c5ccccc5)nc4)cnn3c3c2C(=O)CCN3)C[C@H](C)O1 [Example 20, 5-((2R,6S)-2,6-dimethylmorpholino)-3-(6-phenylpyridin-3-yl)-8,9-dihydropyrazolo[1,5-a]pyrido[3,2-e]pyrimidin-6(7H)-one]
5 | > 8.00 | O=C1CCNc2c1c(N1CCS(=O)(=O)CC1)nc1c(-c3cnc4ccc(F)cc4c3)cnn21 [Example 21]
6 | > 8.00 | O=C1CCNc2c1c(N1CCS(=O)(=O)CC1)nc1c(-c3ccc(-c4ccccc4)nc3)cnn21 [Example 22]
7 | > 8.00 | O=C1CCNc2c1c(C1CCS(=O)(=O)CC1)nc1c(-c3ccc(-c4ccccc4)nc3)cnn21 [Example 23, 3-(6-phenylpyridin-3-yl)-5-(tetrahydro-1,1-dioxido-2H-thiopyran-4-yl)-8,9-dihydropyrazolo[1,5-a]pyrido[3,2-e]pyrimidin-6(7H)-one]
8 | 7.00 to 8.00 | O=C1CCNc2c1c(C1CCS(=O)(=O)CC1)nc1c(-c3cnc4ccccc4c3)cnn21 [Example 24, 3-(quinolin-3-yl)-5-(tetrahydro-1,1-dioxido-2H-thiopyran-4-yl)-8,9-dihydropyrazolo[1,5-a]pyrido[3,2-e]pyrimidin-6(7H)-one]
9 | > 8.00 | COCCO[C@]1(C(=O)O)CC[C@@H](c2nc3c(-c4cnn(-c5ccccc5)c4)cnn3c3c2C(=O)CCN3)CC1 [Example 25, (1r,4r)-1-(2-methoxyethoxy)-4-(6-oxo-3-(1-phenyl-1H-pyrazol-4-yl)-6,7,8,9-tetrahydropyrazolo[1,5-a]pyrido[3,2-e]pyrimidin-5-yl)cyclohexanecarboxylic acid]
10 | > 8.00 | O=C1CCNc2c1c(C1C[C@H]3COC[C@@H](C1)N3C(=O)c1nc[nH]n1)nc1c(-c3ccc(-c4ccccc4)nc3)cnn21 (stereo partly drawn) [Example 27, 5-((1R,5S)-9-(1H-1,2,4-triazole-3-carbonyl)-3-oxa-9-azabicyclo[3.3.1]nonan-7-yl)-3-(6-phenylpyridin-3-yl)-8,9-dihydropyrazolo[1,5-a]pyrido[3,2-e]pyrimidin-6(7H)-one]
11 | < 7.00 | CC(NC1CCOCC1)c1nc2c(-c3cnc4ccc(F)cc4c3)cnn2c2c1C(=O)CCN2 (stereo not drawn) [Example 28, 3-(6-fluoroquinolin-3-yl)-5-(1-(tetrahydro-2H-pyran-4-ylamino)ethyl)-8,9-dihydropyrazolo[1,5-a]pyrido[3,2-e]pyrimidin-6(7H)-one]

Continued, compound first:

Row | Compound | pIC50
12 | O=C1CCNc2c1c(C1CC3CCC(C1)N3C(=O)c1nnc[nH]1)nc1c(-c3ccc(-c4ccccc4)nc3)cnn21 (stereo not drawn) [Example 1, 5-(8-(4H-1,2,4-triazole-3-carbonyl)-8-azabicyclo[3.2.1]octan-3-yl)-3-(6-phenylpyridin-3-yl)-8,9-dihydropyrazolo[1,5-a]pyrido[3,2-e]pyrimidin-6(7H)-one] | > 8.00
13 | O=C(c1nnc[nH]1)N1C2CCC1CC(c1nc3c(-c4ccc(-c5ccccc5)nc4)cnn3c3[nH]ccc(=O)c13)C2 (stereo not drawn) [Example 2, 5-(8-(4H-1,2,4-triazole-3-carbonyl)-8-azabicyclo[3.2.1]octan-3-yl)-3-(6-phenylpyridin-3-yl)pyrazolo[1,5-a]pyrido[3,2-e]pyrimidin-6(9H)-one] | > 8.00
14 | Cn1ccc(-c2ccc(-c3cnn4c5c(c(C6CC7CCC(C6)N7C(=O)c6nnc[nH]6)nc34)C(=O)CCN5)cn2)n1 (stereo not drawn) [Example 4] | > 8.00
15 | Cn1ccc(-c2ccc(-c3cnn4c5c(c(C6CC7CCC(C6)N7C(=O)C(C)(CO)CO)nc34)C(=O)CCN5)cn2)n1 (stereo not drawn) [Example 5] | > 8.00
16 | COc1ccc(-c2ccc(-c3cnn4c5c(c(C6CC7CCC(C6)N7C(=O)CO)nc34)C(=O)CCN5)cn2)cc1F (stereo not drawn) [Example 6] | > 8.00
17 | COc1ccc(-c2ccc(-c3cnn4c5c(c(C6CC7CCC(C6)N7C(=O)C(C)(CO)CO)nc34)C(=O)CCN5)cn2)cc1F (stereo not drawn) [Example 8] | > 8.00
18 | O=C1CCNc2c1c(C1CC3CCC(C1)N3C(=O)c1nnc[nH]1)nc1c(-c3ccc(-c4ccccn4)nc3)cnn21 (stereo not drawn) [Example 12] | > 8.00
19 | O=C1CCNc2c1c(C1CCN(C(=O)c3nnc[nH]3)CC1)nc1c(-c3ccc(-c4ccccc4)nc3)cnn21 [Example 15, 5-(1-(4H-1,2,4-triazole-3-carbonyl)piperidin-4-yl)-3-(6-phenylpyridin-3-yl)-8,9-dihydropyrazolo[1,5-a]pyrido[3,2-e]pyrimidin-6(7H)-one] | > 8.00
20 | O=C1CCNc2c1c(C1CCN(C(=O)CO)CC1)nc1c(-c3ccc(-c4ccccc4)nc3)cnn21 [Example 16] | > 8.00
21 | (1r,4r)-1-(2-methoxyethoxy)-4-(3-(6-(1-methyl-1H-pyrazol-3-yl)pyridin-3-yl)-6-oxo-6,7,8,9-tetrahydropyrazolo[1,5-a]pyrido[3,2-e]pyrimidin-5-yl)cyclohexanecarboxylic acid [Example 26] | > 8.00
